In brackets after ≈: the same amount, converted by molar mass. Where a SMILES comes first, the peptide text is derived from it. Bridges are numbered along the chain shown (N, C = ends).
How the values were obtained:
[1] = Retention time of the compound by RP-HPLC analysis; type: physicochemical
[2] = Kinetic solubility of compound in phosphate buffer at pH 7.4 by UV analysis; type: physicochemical; conditions: read-out: Kinetic_solubility
[3] = Octanol/buffer partition coefficient, logD of the compound at pH 7.4 incubated for 24 hrs by shake flask method based UV analysis; type: physicochemical
[4] = Apparent membrane permeability of the compound in PBS buffer at pH 7.4 measured after 24 hrs by PAMPA assay; type: ADME
[5] = Kinetic solubility of the compound by RP-HPLC analysis

Compound	Retention_time [1] [min]	solubility kinetic [2] [µM]	logD at 24 h [3]	Papp at 24 h [4] [×10⁻⁶ cm/s]	kinetic solubility [5] [µM]	Retention time [1] [min]
CC(=O)CC(c1ccccc1)c1c(O)c2ccccc2oc1=O (stereo not given) [WARFARIN]	–	–	–	7.06	–	–
H-RWVARRDYRFDMGFNYWVWE-OH	22.6	50	0.7	4.04	–	–
H-RWVVRRDYRFDMGFDYWVWE-OH	23	20	-1.1	2.61	–	–
H-RWVWRDYRFDMGFDWVWE-OH	25.2	20	0.1	5.28	–	–
H-RWVARAYGNYGYIDVWHWE-OH	21.9	70	-1.3	0.38	–	–
H-RWVAREGMNTDGYFDYWHWE-OH	21.1	690	0.3	0.02	–	–
H-RWVKRRDYRFDMGFDYWVWE-OH	–	20	-0.4	0.14	21900	–
H-RWVARRDYRGDMGFNYWVWE-OH	20.9	60	-0.8	0.02	–	–
H-RWVAREGGWFGELAFNYWVWE-OH	21.2	260	-0.5	2.05	–	–

More lines, now with the values ahead:

Retention_time [1] [min]	solubility kinetic [2] [µM]	logD at 24 h [3]	Papp at 24 h [4] [×10⁻⁶ cm/s]	kinetic solubility [5] [µM]	Retention time [1] [min]	Compound
23.1	10	0.2	2.18	–	–	H-RWVARRDYRFDMGFDYWVWE-OH
20.3	40	0.7	0.07	–	–	H-RWVARRDYRGDMGFDYWHWE-OH
24.1	2	0.6	4.15	–	–	H-RWVARAYGNYWYIDVWHWE-OH
23.3	20	0.9	0.01	–	–	H-RWVWRDYRGDMGFDWVWE-OH
21.8	10	-0.5	2.55	–	–	H-RWVARRDYRFDMGFDYWHWE-OH
18.8	18000	-1.9	0.26	–	–	H-RGVARRDYRGDPGFDYWHWE-OH
22.8	530	0.9	0.09	–	–	H-RWVWSPDSSGVAYWVWE-OH
21.5	20	0.6	1.59	–	–	H-RWVARRDYRGDMGFDYWVWE-OH
22	10 (≈ 27.6 µg/mL)	-0.6	3.71	–	–	CSCC[C@@H]1NC(=O)[C@H](CC(=O)O)NC(=O)[C@H](Cc2ccccc2)NC(=O)[C@H](CCCNC(=N)N)NC(=O)[C@H](Cc2ccc(O)cc2)NC(=O)[C@H](CC(=O)O)NC(=O)[C@H](CCCNC(=N)N)NC(=O)[C@H](CCCNC(=N)N)NC(=O)[C@H](C)NC(=O)[C@@H](NC(=O)[C@H](Cc2c[nH]c3ccccc23)NC(=O)[C@@H](N)CCCNC(=N)N)CSSC[C@@H](C(=O)N[C@@H](Cc2c[nH]c3ccccc23)C(=O)N[C@@H](CCC(=O)O)C(=O)O)NC(=O)[C@H](Cc2c[nH]c3ccccc23)NC(=O)[C@H](Cc2ccc(O)cc2)NC(=O)[C@H](CC(=O)O)NC(=O)[C@H](Cc2ccccc2)NC(=O)CNC1=O (H-RWCARRDYRFDMGFDYWCWE-OH; disulfide 3-18)
19.5	1800	-1.3	0.02	–	–	H-RWVKRRDYRGDMGFDYWVWE-OH
23.3	20	1.2	0.42	–	–	H-RWVAREGMNTDWYFDYWHWE-OH
–	30	-0.9	0.04	–	20.6	H-RWVVRRDYRGDMGFDYWVWE-OH
23.2	140	0.8	0.2	–	–	H-RWVWRDLDIATTRDYWVWE-OH
